Source: patent US8877946B2, “Benzylidene-indolinone compounds and their medical use” (National University of Singapore, priority 2011, dated 2014)
In brackets after ≈: the same amount, converted by molar mass. Like-named read-outs stand apart in the source and are kept apart here.

How the values were obtained:
CYP1A1 = test: EROD assay, induction of CYP1A1 activity in HuH7 cells; type: cell-based, human; conditions: for induction of CYP450 (CYP1A1, EROD) activity: broad range of concentrations spanning growth inhibitory concentrations, FIG. 2
Text: The induction of CYP1A1 activity was monitored by the 7-ethoxyresorufin O-deethylase (EROD) assay. EROD is a CYP1A1 enzyme and induction of its activity would result in the formation of more resorufin, a fluorescent compound. By monitoring resorufin levels in cells that are exposed to test compound and comparing the levels with those in untreated cells, it is possible to identify compounds that induce EROD activity.
Readings were taken at λexcitation of 530 nm and λemission of 590 nm on a fluorometer (Name the plate reader). Background fluorescence of the test compound was determined at the same wavelengths to take into account its contribution to the observed readings. Readings of “blank” wells that contained only media and “control” wells with only HuH7 cells in media (with 1% DMSO) were also determined. β-napthoflavone (BNF), a known inducer of CYP1A1 activity (give ref) was used as a positive control. The extent to which EROD activity was induced is given by the expression: Degree of induction=(FCells+Test Compound−FBlank)/(FControl−FBlank)
Where Fcells+test compound=fluorescence of wells containing treated cells; FBlank=fluorescence of well containing media only; FControl=fluorescence readings of wells containing untreated cells. The test compounds were not fluorescent at the excitation and emission wavelengths used in this assay. Two separate determinations were made for each concentration of test compound.

HuH7 cells = test: MTT antiproliferative (growth inhibition) assay on HuH7 cells; type: cell-based, human; conditions: Homo sapiens, Huh-7, MTT
Outline: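 Cells were exposed to compound for 72 h at 37° C, 5% CO2, with 0.5% v/v DMSO (1% if poorly soluble), then given MTT for 3 h. Formazan was dissolved in DMSO/Sorenson buffer and absorbance read at 570 nm; IC50 from sigmoidal fits of % viability versus log concentration.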

Hep G2 = test: MTT antiproliferative assay on Hep G2 cells; type: cell-based; conditions: Homo sapiens, HepG2, 72 h
Text: (§1) MTT was purchased from DUCHEFA Biochemie ([…]). Sunitinib, and sodium dodecyl sulfate, bovine serum albuminwere obtained from Sigma Aldrich (Singapore). Sorafenib was purchase from Ontario Chem. Fetal bovine serum (FBS) was obtained from Invitrogen. Human hepatocellular carcinoma cells (HuH-7 and Hep G2), and human diploid fibroblast strain (IMR 90). HuH7 was obtained as gifts from Dr Ho Han Kiat, Department of Pharmacy, NUS. IMR90 and Hep G2 were purchased from American Type Culture Collection (ATCC). HuH-7 cells were cultured in DMEM (Dulbecco's Modified Eagle Medium, high glucose) with 10% v/v fetal bovine serum (FBS), 100 mg/L penicillin G and 100 mg/L streptomycin. IMR 90 cell were cultured in EMEM (Eagle's Minimum Essential Medium), with 10% v/v FBS and 100 mg/L penicillin G and 100 mg/L streptomycin. The cells were sub-cultured when HuH7 or Hep G2 reached a density of 70-80×10^5 cell/T75 flask, and IMR 90 reached 20×10^5 cell/T75 flask. Cells were used within 2-10 passages for viability experiments.
(§2) The anti-proliferative activity of the test compounds were determined by the MTT assay. An aliquot (200 μL, 3×10^4 cells/mL for HuH7, 3.75×10^4 cells/mL for Hep G2, and 2×10^4 cells/mL for IMR 90) of medium was added to each well of the microtitre plate. […] The existing medium was removed from each well and replaced by fresh medium (200 μL) containing a known concentration of test compound. The final concentration of DMSO in each well was maintained at 0.5% v/v. (1% v/v was also utilized if the compounds were not soluble) The test compounds were incubated with the cells for another 72 h at 37 deg C., 5% CO2. The medium was then removed from the well and replaced with FBS free medium (200 μL) and MTT (50 μL of 2 mg/mL solution in phosphate buffer saline, pH 7.4). The phosphate buffer saline comprises 10 mM of potassium phosphate and 137 mM sodium chloride. After incubation (3 h) at 37 deg C., 5% CO2, the supernatant was removed and a solution of 200 μL DMSO and 25 μL Sorenson buffer (0.1 M glycine, 0.1 M sodium chloride, adjusted to pH 10.5 with 0.1 M sodium hydroxide) was added to dissolve the formazan crystals in each well. Vehicle control were cells grown in 1% v/v DMSO/Medium for 72 h, 37 deg C., 5% CO2 while blank controls were wells that contained only 200 μL DMSO and 25 μL Sorenson buffer. Absorbances were measured at 570 nm on a microplate reader (Tecan, Infinite 200). The viability of cells at a given concentration of test compound was determined from the expression:
(§3) [formula] where abs_compound=absorbance of wells containing cells and test compound, abs_vehicle (Not the same as above. Change to abs_vehicle)=absorbance of vehicle control and abs_blank=absorbance of blank control.
(§4) Each concentration of test compound was evaluated at least 3 times on separate occasions, and two different stock solution were used. The IC50 value (concentration that inhibited 50% of cell growth) was determined from the sigmoidal curve obtained by plotting percentage viability versus logarithmic concentration of test compound using GraphPad Prism 5 (San Diego, USA).

phospho-STAT3 (Tyr 705) = test: Detection of phosphorylated STAT3 by immunoblot in HepG2; type: cell-based, human; conditions: FIG. 3
Procedure: Rabbit polyclonal antibodies to STAT3 was obtained from Santa Cruz Biotechnology (Santa Cruz, Calif.), and rabbit monoclonal antibodies against phospho-STAT3 (Tyr 705) were purchased from Cell Signaling Technology (Beverly, Mass.).
For detection of phopho-STAT 3 and STAT 3, treated whole-cell extracts were lysed in lysis buffer (20 mM Tris (pH 7.4), 250 mM NaCl, 2 mM EDTA (pH 8.0), 0.1% Triton X-100, 0.01 mg/ml aprotinin, 0.005 mg/ml leupeptin, 0.4 mM PMSF, and 4 mM NaVO4). Lysates were then spun at 14,000 rpm for 10 min to remove insoluble material and resolved on a 7.5% SDS gel. After electrophoresis, the proteins were electrotransferred to a nitrocellulose membrane, blocked with 5% nonfat milk, and probed with anti-phospho-STAT 3 and anti-STAT 3 antibodies (1:1,000) overnight at 4° C. The blot was washed, exposed to HRP-conjugated secondary antibodies for 1 hr, and finally examined by chemiluminescence (ECL; GE Healthcare, Little Chalfont, Buckinghamshire, UK).

IMR 90 = test: MTT antiproliferative assay on non-malignant IMR 90 fibroblasts; type: cell-based; conditions: non-malignant human lung fibroblast IMR 90, MTT, 72 h
Text: as §1, §2, §3, §4

AFP mRNA = test: Determination of AFP mRNA levels by quantitative real-time PCR in HuH7 cells; type: cell-based, human; conditions: 10 μM, 24 h, FIG. 1
Text: The primer sequences were: […] reverse); [NT] (Human GADPH forward); [NT] (Human GADPH reverse).

PAMPA permeability (Pe) = type: physicochemical; conditions: 1% lecithin in dodecane, mean of 3 determinations
Procedure: (§5) Solubility and PAMPA permeability (Pe) are important physicochemical indicators of drug-like character. Determination of aqueous solubility was carried out on Multiscreen® Solubility filter plates (Millipore-MSSLBPC10) from Millipore Corporation (MA, USA). The protocol (PC2445EN00, Millipore Corporation) was followed. Pe determinations were carried out on MultiScreen-IP PAMPA assay (donor) plates (MAIPNTR10) and MultiScreen Receiver Plates (MATRNPS50) from Millipore Corporation (USA) with 1% lecithin (L-α-phosphatidylcholine from lyophilized powder of egg yolk, Sigma Aldrich, USA) in dodecane (ReagentPlus®, Sigma Aldrich, USA) as lipid barrier.

[1] = Aqueous solubility on Multiscreen Solubility filter plates; type: physicochemical; conditions: aqueous solution on Multiscreen Solubility filter plates, aqueous buffer, kinetic from dmso stock, mean of 3 determinations
Procedure: as §5

[2] = 72 h (Table 9), read-out: IC50 (μM) HuH7
[3] = 72 h incubation, mean and SD of 3 or more independent determinations (Tables 1-8), read-out: IC 50

induction of EROD activity at 0.05 μM (CYP1A1; 0.05 μM, declined at higher concentrations) | IC50 (HuH7 cells; [2]) [µM] | IC50 (HuH7 cells; [3]) [µM] | Pe (×10^−6 cm/s) (PAMPA permeability (Pe); pH 7.4, 6 h) | Pe (×10^−6 cm/s) (PAMPA permeability (Pe); pH 7.4, 16 h) | solubility at 3 h ([1]; pH 7.4, agitation time 3 h) [µM] | solubility at 24 h ([1]; pH 7.4, agitation time 24 h) [µM] | SMILES | induction of CYP450 (CYP1A1, EROD) activity (CYP1A1) | IC50 (Hep G2) [µM] | effect on p-STAT3 levels (constitutive STAT3 activation) (phospho-STAT3 (Tyr 705)) | IC50 (IMR 90) [µM] | effect on AFP mRNA levels (AFP mRNA)
unusual (but reproducible) induction | 0.46 ± 0.06 | 0.46 ± 0.06 |  |  |  |  | CN1C(=O)/C(=C/c2cccc(C(F)(F)F)c2)c2ccc(Cl)cc21 [Compound 1-10, (E) 6-Chloro-1-methyl-3-(3-trifluoromethyl-benzylidene)-1,3-dihydro-indol-2-one, reference compound] | did not induce CYP450 activity | 0.94 ± 0.18 | did not | 9.23 ± 0.88 | reduced AFP mRNA by almost half
 | 0.54 ± 0.07 | 0.54 ± 0.07 |  |  |  |  | O=C1Nc2ccc(F)c(F)c2/C1=C/c1cccc(C(F)(F)F)c1 [Compound 6-6, (Z)-4,5-Difluoro-3-(3-trifluoromethyl-benzylidene)-1,3-dihydro-indol-2-one] | did not induce CYP450 activity | 0.96 ± 0.11 | did not | 8.1 ± 0.73 | reduced levels to almost the same extent as 1-10
 | 0.54 ± 0.06 | 0.54 ± 0.06 | 18.3 ×10^−6 cm/s | 12.3 ×10^−6 cm/s | 8.85 (≈ 3.09 µg/mL) | 2.28 (≈ 0.795 µg/mL) | CNS(=O)(=O)c1cccc(/C=C2/C(=O)Nc3cc(Cl)ccc32)c1 [Compound 1-18, (E)-3-(6-Chloro-2-oxo-1,2-dihydro-indol-3-ylidenemethyl)-N-methyl-benzenesulfonamide] | did not induce CYP450 activity | 3.99 ± 0.43 | reduced p-STAT3 levels | 2.1 | no significant change in AFP mRNA levels
